The text below walks through data of patent publication US6756359B2, “C12 modified erythromycin macrolides and ketolides having antibacterial activity” (Chiron Corporation, priority 2001, dated 2004).

Test in all cases: Antibacterial activity in vitro, MIC by broth microdilution
A general note: Broth dilution looks for growth in wells or tubes with falling amounts of substance.

One assay deals with E. faecalis Enfa_29212. It counts as cell-based. The note with it: Table 5, Strain ID D: E. faecalis Enfa_29212; unit assumed. An outline of the steps: (§1)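 Visible-growth inhibition defined the MIC, obtained by NCCLS broth microdilution at 35° C. over 18-24 hours with a final inoculum of 3×10^5–7×10^5 CFU/mL.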
The subject of assay [1] is S. epidermidis Step_f50654 Pen S. Format: cell-based. The note with it: Table 5, Strain ID C: S. epidermidis Step_f50654; unit assumed. In short, it runs like this: as §1
The next assay relates to S. aureus Stau_29213. It counts as cell-based. The note with it: Table 5, Strain ID A: S. aureus Stau_29213; unit assumed. In short, it runs like this: as §1
A further assay deals with S. pyogenes Stpy_8668. Format: cell-based. The following applies: Table 5, Strain ID E: S. pyogenes Stpy_8668. In short, it runs like this:
as §1

For assay [2], the system named is S. epidermidis Step_14990. Format: cell-based. The following applies: Table 5, Strain ID B: S. epidermidis Step_14990; unit assumed. An outline of the steps: as §1
The subject of the next assay is H. influenzae Hain_49247. Format: cell-based, Haemophilus influenzae. The following applies: Table 5, Strain ID M: H. influenzae Hain_49247; unit assumed. In short, it runs like this: as §1
Assay [3] deals with S. pneumoniae Stpn_297-749 Pen R. It counts as cell-based, Streptococcus pneumoniae. The note with it: Table 5, Strain ID G: S. pneumoniae Stpn_297-749. An outline of the steps: as §1
The subject of assay [4] is S. pneumoniae Stpn_Mef 5654. Format: cell-based, Streptococcus pneumoniae. The following applies: Table 5, Strain ID K: S. pneumoniae Stpn_Mef 5654; unit assumed. An outline of the steps:
as §1

For assay [5], the system named is S. pneumoniae Stpn_Erm S 4297. Format: cell-based, Streptococcus pneumoniae. The following applies: Table 5, Strain ID J: S. pneumoniae Stpn_Erm S 4297. In short, it runs like this: as §1
The test system of a further assay is S. pneumoniae Stpn_49619. Format: cell-based, Streptococcus pneumoniae. The note with it: Table 5, Strain ID F: S. pneumoniae Stpn_49619. In short, it runs like this:
as §1

Assay [6] concerns S. pneumoniae Stpn_Erm 6849. It counts as cell-based, Streptococcus pneumoniae. The note with it: Table 5, Strain ID I: S. pneumoniae Stpn_Erm 6849. An outline of the steps:
as §1

Assay [7] has as its system S. pneumoniae Stpn_Mef S 3427. Format: cell-based, Streptococcus pneumoniae. The following applies: Table 5, Strain ID L: S. pneumoniae Stpn_Mef S 3427. In short, it runs like this:
as §1

The subject of assay [8] is S. pneumoniae Stpn_280-962 Pen S. Format: cell-based, Streptococcus pneumoniae. The note with it: Table 5, Strain ID H: S. pneumoniae Stpn_280-962. In short, it runs like this:
as §1

≈ marks a conversion by molar mass, not a printed value.

`CC[C@H]1OC(=O)[C@@](C)(F)C(=O)[C@H](C)[C@@H](O[C@@H]2O[C@H](C)C[C@H](N(C)C)[C@H]2O)[C@@](C)(OC)C[C@@H](C)C(=O)[C@H](C)[C@H]2N(CCCC(C)(C)n3cnc4cccnc43)C(=O)O[C@]12CC` [Example 40, (3aS,4R,7S,9R,10R,11S,13R,15R,15aR)-3a,4-diethyl-7-fluoro-1-[4-(3H-imidazo[4,5-b]pyridin-3-yl)-4-methylpentyl]-11-methoxy-7,9,11,13,15-pentamethyl-2,6,8,14-tetraoxotetradecahydro-2H-oxacyclotetradecino[4,3-d][1,3]oxazol-10-yl 3,4,6-trideoxy-3-(dimethylamino)-D-xylo-hexopyranoside]: the MIC was 0.1 µg/mL (≈ 0.118 µM) against E. faecalis Enfa_29212; 0.2 µg/mL (≈ 0.236 µM) in [1]; 0.2 µg/mL (≈ 0.236 µM) against S. aureus Stau_29213; “≦0.05” with S. pyogenes Stpy_8668; 0.2 µg/mL (≈ 0.236 µM) in assay [2]; 6.25 µg/mL (≈ 7.39 µM) with H. influenzae Hain_49247. For the same compound, the MIC entry is “≦0.05” in assay [3]; 0.78 µg/mL (≈ 0.922 µM) in assay [4]; “≦0.05” in assay [5]; “≦0.05” in the assay with S. pneumoniae Stpn_49619; 0.2 µg/mL (≈ 0.236 µM) in assay [6] (unit assumed); 0.2 µg/mL (≈ 0.236 µM) in [7] (unit assumed). In addition, in assay [8], the MIC entry is given as “≦0.05”.

In the case of `CC[C@H]1OC(=O)[C@H](C)C(=O)[C@H](C)[C@@H](OC2O[C@H](C)C[C@H](N(C)C)[C@H]2O)[C@@](C)(OC)C[C@@H](C)C(=O)[C@H](C)[C@H]2N(CCCCn3cnc4cccnc43)C(=O)O[C@]12CC` (stereo partly drawn) [Example 14, (3aS,4R,7R,9R,10R,11S,13R,15R,15aR)-3a,4-diethyl-1-[4-(3H-imidazo[4,5-b]pyridin-3-yl)butyl]-11-methoxy-7,9,11,13,15-pentamethyl-2,6,8,14-tetraoxotetradecahydro-2H-oxacyclotetradecino[4,3-d][1,3]oxazol-10-yl 3,4,6-trideoxy-3-(dimethylamino)-D-xylo-hexopyranoside], the MIC was 0.1 µg/mL (≈ 0.125 µM) with E. faecalis Enfa_29212; 0.2 µg/mL (≈ 0.25 µM) in assay [1]; 0.4 µg/mL (≈ 0.5 µM) in the assay on S. aureus Stau_29213; “≦0.05” against S. pyogenes Stpy_8668; 0.2 µg/mL (≈ 0.25 µM) in [2]; 3.13 µg/mL (≈ 3.91 µM) against H. influenzae Hain_49247. Moreover, the MIC entry in assay [3] is “≦0.05”; in assay [4], 0.4 µg/mL (≈ 0.5 µM); in assay [5] (unit assumed) it was 0.1 µg/mL (≈ 0.125 µM); against S. pneumoniae Stpn_49619, “≦0.05”; in assay [6] (unit assumed) it was 0.4 µg/mL (≈ 0.5 µM); in [7], “≦0.05”. Moreover, the MIC result in assay [8] is reported as “≦0.05”.

Turning to `CC[C@H]1OC(=O)[C@H](C)C(=O)[C@H](C)[C@@H](OC2O[C@H](C)C[C@H](N(C)C)[C@H]2O)[C@@](C)(OC)C[C@@H](C)C(=O)[C@H](C)[C@H]2N(CCCCn3cnc(-c4cncnc4)c3)C(=O)O[C@]12CC` (stereo partly drawn) [Example 25, (3aS,4R,7R,9R,10R,11S,13R,15R,15aR)-3a,4-diethyl-11-methoxy-7,9,11,13,15-pentamethyl-2,6,8,14-tetraoxo-1-[4-(4-pyrimidin-5-yl-1H-imidazol-1-yl)butyl]tetradecahydro-2H-oxacyclotetradecino[4,3-d][1,3]oxazol-10-yl 3,4,6-trideoxy-3-(dimethylamino)-D-xylo-hexopyranoside], the MIC in the assay on E. faecalis Enfa_29212 was 0.1 µg/mL (≈ 0.121 µM); in assay [1], 0.2 µg/mL (≈ 0.242 µM); against S. aureus Stau_29213 it was 0.4 µg/mL (≈ 0.484 µM); in the assay on S. pyogenes Stpy_8668, “≦0.05”; in assay [2], 0.2 µg/mL (≈ 0.242 µM); against H. influenzae Hain_49247, 3.13 µg/mL (≈ 3.78 µM). Also, the MIC entry in assay [3] was “≦0.05”; in assay [4], 0.4 µg/mL (≈ 0.484 µM); in [5] (unit assumed) it was 0.1 µg/mL (≈ 0.121 µM); with S. pneumoniae Stpn_49619, “≦0.05”; in assay [6] (unit assumed), 0.1 µg/mL (≈ 0.121 µM); in assay [7] (unit assumed), 0.1 µg/mL (≈ 0.121 µM). Also, the MIC entry in assay [8] is given as “≦0.05”.

Consider `CC[C@H]1OC(=O)[C@@](C)(F)C(=O)[C@H](C)[C@@H](OC2O[C@H](C)C[C@H](N(C)C)[C@H]2O)[C@@](C)(OC)C[C@@H](C)C(=O)[C@H](C)[C@H]2N(CCCCc3ccnc4ccccc34)C(=O)O[C@]12CC` (stereo partly drawn) [Example 17, (3aS,4R,7S,9R,10R,11S,13R,15R,15aR)-3a,4-diethyl-7-fluoro-11-methoxy-7,9,11,13,15-pentamethyl-2,6,8,14-tetraoxo-1-(4-quinolin-4-ylbutyl)tetradecahydro-2H-oxacyclotetradecino[4,3-d][1,3]oxazol-10-yl 3,4,6-trideoxy-3-(dimethylamino)-D-xylo-hexopyranoside], for which the MIC against E. faecalis Enfa_29212 worked out at 0.2 µg/mL (≈ 0.242 µM); in [1], 0.4 µg/mL (≈ 0.483 µM); against S. aureus Stau_29213 it was 0.4 µg/mL (≈ 0.483 µM); in the assay on S. pyogenes Stpy_8668 (unit assumed) it was 0.1 µg/mL (≈ 0.121 µM); in [2], 0.4 µg/mL (≈ 0.483 µM); against H. influenzae Hain_49247, 3.13 µg/mL (≈ 3.78 µM). Further, the MIC result in assay [3] is “≦0.05”; in [4] it was 0.4 µg/mL (≈ 0.483 µM); in [5] (unit assumed), 0.2 µg/mL (≈ 0.242 µM); with S. pneumoniae Stpn_49619 it was “≦0.05”; in [6] (unit assumed), 0.78 µg/mL (≈ 0.942 µM); in assay [7] (unit assumed) it was 0.1 µg/mL (≈ 0.121 µM). The MIC result in assay [8] is reported as “≦0.05”.

As for `CC[C@H]1OC(=O)[C@H](C)C(=O)[C@H](C)[C@@H](OC2O[C@H](C)C[C@H](N(C)C)[C@H]2O)[C@@](C)(OC)C[C@@H](C)C(=O)[C@H](C)[C@H]2N(CCCCn3cnc(-c4cnccn4)c3)C(=O)O[C@]12CC` (stereo partly drawn) [Example 26, (3aS,4R,7R,9R,10R,11S,13R,15R,15aR)-3a,4-diethyl-11-methoxy-7,9,11,13,15-pentamethyl-2,6,8,14-tetraoxo-1-[4-(4-pyrazin-2-yl-1H-imidazol-1-yl)butyl]tetradecahydro-2H-oxacyclotetradecino [4,3-d][1,3]oxazol-10-yl 3,4,6-trideoxy-3-(dimethylamino)-D-xylo-hexopyranoside], the MIC in the assay with E. faecalis Enfa_29212 was 0.2 µg/mL (≈ 0.242 µM); in assay [1] it was 0.2 µg/mL (≈ 0.242 µM); against S. aureus Stau_29213 it was 0.2 µg/mL (≈ 0.242 µM); in the assay on S. pyogenes Stpy_8668, “≦0.05”; in assay [2], 0.2 µg/mL (≈ 0.242 µM); in the assay with H. influenzae Hain_49247, 3.13 µg/mL (≈ 3.78 µM). The MIC result was “≦0.05” in assay [3]; 0.4 µg/mL (≈ 0.484 µM) in assay [4]; “≦0.05” in assay [5]; “≦0.05” in the assay with S. pneumoniae Stpn_49619; 0.2 µg/mL (≈ 0.242 µM) in [6] (unit assumed); 0.1 µg/mL (≈ 0.121 µM) in assay [7] (unit assumed). Besides, the MIC entry in assay [8] is listed as “≦0.05”.

Take `CC[C@H]1OC(=O)[C@H](C)C(=O)[C@H](C)[C@@H](OC2O[C@H](C)C[C@H](N(C)C)[C@H]2O)[C@@](C)(OC)C[C@@H](C)C(=O)[C@H](C)[C@H]2N(CCCCc3ccc4ccccc4n3)C(=O)O[C@]12CC` (stereo partly drawn) [Example 18, (3aS,4R,7R,9R,10R,11S,13R,15R,15aR)-3a,4-diethyl-11-methoxy-7,9,11,13,15-pentamethyl-2,6,8,14-tetraoxo-1-(4-quinolin-2-ylbutyl)tetradecahydro-2H-oxacyclotetradecino[4,3-d][1,3]oxazol-10-yl 3,4,6-trideoxy-3-(dimethylamino)-D-xylo-hexopyranoside]: the MIC against E. faecalis Enfa_29212 amounted to 0.1 µg/mL (≈ 0.123 µM); in [1], 0.78 µg/mL (≈ 0.963 µM); in the assay with S. aureus Stau_29213, 0.78 µg/mL (≈ 0.963 µM); in the assay with S. pyogenes Stpy_8668 (unit assumed), 0.1 µg/mL (≈ 0.123 µM); in [2], 0.4 µg/mL (≈ 0.494 µM); in the assay with H. influenzae Hain_49247 it was 3.13 µg/mL (≈ 3.86 µM). In addition, the MIC result in assay [3] was “≦0.05”; in assay [4], 0.4 µg/mL (≈ 0.494 µM); in [5] (unit assumed), 0.2 µg/mL (≈ 0.247 µM); in the assay on S. pneumoniae Stpn_49619, “≦0.05”; in assay [6] (unit assumed), 3.13 µg/mL (≈ 3.86 µM); in assay [7], “≦0.05”. For the same compound, in assay [8], the MIC result is “≦0.05”.

On to `CC[C@H]1OC(=O)[C@H](C)C(=O)[C@H](C)[C@@H](OC2O[C@H](C)C[C@H](N(C)C)[C@H]2O)[C@@](C)(OC)C[C@@H](C)C(=O)[C@H](C)[C@H]2N(CCCCn3cnc(-c4ccc(F)nc4)c3)C(=O)O[C@]12CC` (stereo partly drawn) [Example 33, (3aS,4R,7R,9R,10R,11S,13R,15R,15aR)-3a,4-diethyl-1-{4-[4-(6-fluoropyridin-3-yl)-1H-imidazol-1-yl]butyl}-11-methoxy-7,9,11,13,15-pentamethyl-2,6,8,14-tetraoxotetradecahydro-2H-oxacyclotetradecino[4,3-d][1,3]oxazol-10-yl 3,4,6-trideoxy-3-(dimethylamino)-D-xylo-hexopyranoside], for which the MIC was 0.1 µg/mL (≈ 0.118 µM) against E. faecalis Enfa_29212; 0.2 µg/mL (≈ 0.237 µM) in assay [1]; 0.4 µg/mL (≈ 0.474 µM) against S. aureus Stau_29213; “≦0.05” with S. pyogenes Stpy_8668; 0.2 µg/mL (≈ 0.237 µM) in assay [2]; 0.1 µg/mL (≈ 0.118 µM) with H. influenzae Hain_49247. In addition, the MIC entry in assay [3] was “≦0.05”; in assay [4], 0.1 µg/mL (≈ 0.118 µM); in assay [5] (unit assumed) it was 0.4 µg/mL (≈ 0.474 µM); with S. pneumoniae Stpn_49619 (unit assumed), 3.13 µg/mL (≈ 3.71 µM); in assay [6] it was “≦0.05”; in assay [7] (unit assumed), 0.4 µg/mL (≈ 0.474 µM). In assay [8], the MIC result is listed as “≦0.05”.
